This is an account of results in patent US20200045967A1, “NOVEL TRIAZOLE DERIVATIVES” (Bayer CropScience Aktiengesellschaft, priority 2017, published 2020).

Data set [1] concerns Septoria tritici. Nature of the data set: Example G6: in vivo curative Septoria tritici test (wheat). Particulars: sprayed 48 hours after the incubation, rate of application 500 ppm, evaluated 21 days after inoculation.
The subject of a further data set is Sphaerotheca fuliginea. The experiment in a line: Example G4: in vivo preventive Sphaerotheca test (cucumbers). Particulars: evaluated 7 days after inoculation. The method, then:
Solvent: 24.5 parts by weight of acetone • 24.5 parts by weight of dimethylacetamide Emulsifier: 1 part by weight of alkylaryl polyglycol ether To produce a suitable preparation of active compound, 1 part by weight of active compound is mixed with the stated amounts of solvent and emulsifier, and the concentrate is diluted with water to the desired concentration. To test for preventive activity, young plants are sprayed with the preparation of active compound at the stated rate of application. After the spray coating has dried on, the plants are inoculated with an aqueous spore suspension of Sphaerotheca fuliginea.

Data set [2] has as its system Colletotrichum lindemuthianum. Nature of the data set: Example G3: in vitro test for the calculation of the ED50-value with microorganisms, Colletotrichum lindemuthianum. The format is cell-based. Particulars: liquid culture, spore suspension, 4 to 7 days incubation, spectrometric measurement of mycelium growth.
Data set [3] has as its system Septoria tritici. Nature of the data set: Example G7: in vivo 5 days preventive Septoria tritici test (wheat). Particulars: inoculated 5 days after spraying, rate of application 500 ppm, evaluated 21 days after inoculation. The method, then:
(§1) Solvent: 49 parts by weight of N,N-dimethylacetamide Emulsifier: 1 part by weight of alkylaryl polyglycol ether To produce a suitable preparation of active compound, 1 part by weight of active compound is mixed with the stated amounts of solvent and emulsifier, and the concentrate is diluted with water to the desired concentration. To test for preventive and long-lasting activity, young plants are sprayed with a preparation of active compound or active compound combination at the stated rate of application.

The test system of data set [4] is Septoria tritici. The experiment in a line: Example G5: in vivo preventive Septoria tritici test (wheat). Particulars: rate of application 500 ppm, evaluated 21 days after inoculation. The method, then:
as §1, with “preventive” for “preventive and long-lasting”, “with the” for “with a”, “application. After the spray coating has been dried, the plants are sprayed with a spore suspension of Septoria tritici.” for “application.”

The test system of a further data set is Fusarium culmorum. Nature of the data set: Example G3: in vitro test for the calculation of the ED50-value with microorganisms, Fusarium culmorum. The format is cell-based. Particulars: liquid culture, spore suspension, 4 to 7 days incubation, spectrometric measurement of mycelium growth. The method, then:
• Solvent: DMSO • Culture medium: 14.6 g anhydrous D-glucose (VWR), 7.1 g mycological peptone (Oxoid), 1.4 g granulated yeast extract (Merck), supplemented with water to a total volume of 1 liter • Inoculum: spore suspension
Fungicides were solubilized in DMSO and the solution used to prepare the required range of concentrations. The final concentration of DMSO used in the assay was <1% by weight.
A spore suspension was prepared and diluted to the desired spore density.
Fungicides were evaluated for their ability to inhibit spore germination and mycelium growth in liquid culture assay. The compounds were added in the desired concentration to the culture medium with spores. After 4 to 7 days incubation, fungi-toxicity of compounds was determined by spectrometric measurement of mycelium growth. Inhibition of fungal growth was determined by comparing the absorbance values in wells containing the fungicides with the absorbance in control wells without fungicides.

The test system of a further data set is Pyricularia oryzae. The format is cell-based. Particulars: liquid culture, spore suspension, 4 to 7 days incubation, spectrometric measurement of mycelium growth.
A further data set relates to Puccinia recondita. The experiment in a line: Example G2: in vivo preventive test on Puccinia recondita (brown rust on wheat), comparison. Particulars: evaluated 11 days after inoculation. The method, then: Young plants of wheat were treated by spraying the active ingredient prepared as described above. Control plants were treated only with an aqueous solution of acetone/dimethyl sulfoxide/Tween®. After 24 hours, the plants were contaminated by spraying the leaves with an aqueous suspension of Puccinia recondita spores.

In the next data set the test system is Botrytis cinerea. Nature of the data set: Example G1: in vivo preventive test on Botrytis cinerea (grey mould), comparison. Particulars: rate of application 500 ppm; gherkin; evaluated 4 to 5 days after inoculation. The method, then:
Young plants of gherkin were treated by spraying the active ingredient prepared as described above. Control plants were treated only with an aqueous solution of acetone/dimethyl sulfoxide/Tween®. After 24 hours, the plants were contaminated by spraying the leaves with an aqueous suspension of Botrytis cinerea spores.

A short description of data set [5]: Log P by HPLC on reversed phase columns (EEC directive 79/831 Annex V.A8). The format is physicochemical. Particulars: method [a]: LC-UV, acidic range, 0.1% formic acid in water and acetonitrile. The method, then: If more than one Log P value is available within the same method, all the values are given and separated by “+”. Calibration was done with straight-chain alkan2-ones (with 3 to 16 carbon atoms) with known Log P values (measurement of Log P values using retention times with linear interpolation between successive alkanones). Lambda-max-values were determined using UV-spectra from 200 nm to 400 nm and the peak values of the chromatographic signals.

`CSc1ccc(Oc2ccc(C(C)(O)Cn3cncn3)c(C(F)(F)F)c2)cc1` (stereo not shown) [Comparative compound, reference compound]: the Efficacy in % in the data set with Septoria tritici [1] is recorded as 57%; in the data set on Sphaerotheca fuliginea (rate of application 10 ppm) it was 28%; in the data set with Sphaerotheca fuliginea (rate of application 100 ppm), 100%; with Septoria tritici [3], 29%; in the data set on Septoria tritici [4] it was 22%; in the data set with Puccinia recondita (rate of application 100 ppm), 25%. Moreover, the Efficacy in % in the data set with Puccinia recondita (rate of application 500 ppm) is on record as 88%; with Botrytis cinerea, 69%. Moreover, the “Colletotrichum lindemuthianum ED50 value in ppm” value in data set [2] is recorded as 0.83 ppm. The “Fusarium culmorum ED50 value in ppm” value in the data set on Fusarium culmorum is on record as 2.6 ppm. The “Pyricularia oryzae ED50 value in ppm” value in the data set on Pyricularia oryzae was determined as 5.6 ppm.

For the compound `O=Cc1ccc(Oc2ccc(C(O)Cn3cncn3)c(C(F)(F)F)n2)cc1` (stereo not shown) [Compound I-01, 4-[[5-[1-hydroxy-2-(1,2,4-triazol-1-yl)ethyl]-6-(trifluoromethyl)-2-pyridyl]oxy]benzaldehyde], the chromatographic logP in data set [5] (compounds of formula (I)) worked out at 1.91.

As to `CSc1ccc(Oc2ccc(C(O)Cn3cncn3)c(C(F)(F)F)n2)cc1` (stereo not shown) [Compound I-02, 1-[6-(4-methylsulfanylphenoxy)-2-(trifluoromethyl)-3-pyridyl]-2-(1,2,4-triazol-1-yl)ethanol], in data set [5] (compounds of formula (I)), the chromatographic logP amounted to 2.59.

Turning to `CSc1ccc(Oc2ccc(C(C)(O)Cn3cncn3)c(C(F)(F)F)n2)cc1` (stereo not shown) [Compound I-03, 2-[6-(4-methylsulfanylphenoxy)-2-(trifluoromethyl)-3-pyridyl]-1-(1,2,4-triazol-1-yl)propan-2-ol], the Efficacy in % in the data set with Septoria tritici [1] worked out at 93%; in the data set with Sphaerotheca fuliginea (rate of application 10 ppm) it was 78%; with Sphaerotheca fuliginea (rate of application 100 ppm), 100%; in the data set on Septoria tritici [3], 71%; in the data set with Septoria tritici [4], 78%; with Puccinia recondita (rate of application 100 ppm) it was 65%. Besides, the figures for the Efficacy in % in the data set with Puccinia recondita (rate of application 500 ppm) and with Botrytis cinerea were 88% and 90%, respectively. In data set [5] (compounds of formula (I)), this compound had a chromatographic logP of 2.74. Moreover, the “Colletotrichum lindemuthianum ED50 value in ppm” value in [2] was 0.38 ppm. In addition, the “Fusarium culmorum ED50 value in ppm” value with Fusarium culmorum is recorded as 0.83 ppm. For the same compound, the “Pyricularia oryzae ED50 value in ppm” value in the data set with Pyricularia oryzae was 1.7 ppm.

For `ON=Cc1ccc(Oc2ccc(C(O)Cn3cncn3)c(C(F)(F)F)n2)cc1` (stereo not shown) [Compound I-04, 4-[[5-[1-hydroxy-2-(1,2,4-triazol-1-yl)ethyl]-6-(trifluoromethyl)-2-pyridyl]oxy]benzaldehyde Oxime], in [5] (compounds of formula (I)), the chromatographic logP stood at 2.26.

Regarding `CC(=O)c1ccc(Oc2ccc(C3OCCO3)cc2)nc1C(F)(F)F` [Compound V-01, 1-[6-[4-(1,3-dioxolan-2-yl)phenoxy]-2-(trifluoromethyl)-3-pyridyl]ethanone], the chromatographic logP in [5] (compounds of formula (V)) came to 2.98.

The compound `CSc1ccc(Oc2ccc(C(C)=O)c(C(F)(F)F)n2)cc1` [Compound V-02, 1-[6-(4-methylsulfanylphenoxy)-2-(trifluoromethyl)-3-pyridyl]ethanone] displayed a chromatographic logP in [5] (compounds of formula (V)) of 3.7.

As to `O=Cc1ccc(Oc2ccc(C(=O)Cn3cncn3)c(C(F)(F)F)n2)cc1` [VII-01, 4-[[5-[2-(1,2,4-triazol-1-yl)acetyl]-6-(trifluoromethyl)-2-pyridyl]oxy]benzaldehyde], the chromatographic logP in data set [5] (compounds of formula (VII)) stood at 2.12.

In data set [5] (compounds of formula (VII)), `CSc1ccc(Oc2ccc(C(=O)Cn3cncn3)c(C(F)(F)F)n2)cc1` [VII-02, 1-[6-(4-methylsulfanylphenoxy)-2-(trifluoromethyl)-3-pyridyl]-2-(1,2,4-triazol-1-yl)ethanone] returned a chromatographic logP of 2.92.

On to `C#Cc1ccc(Oc2ccc(C(=O)Cn3cncn3)c(C(F)(F)F)n2)cc1` [VII-04, 1-[6-(4-ethynylphenoxy)-2-(trifluoromethyl)-3-pyridyl]-2-(1,2,4-triazol-1-yl)ethanone], for which the chromatographic logP in data set [5] (compounds of formula (VII)) turned out to be 2.63.

Broadly, the chromatographic logP is a lipophilicity value derived from retention on a column. Higher therefore signals higher lipophilicity.
